These results are taken from PubChem BioAssay AID2060627 (Molecular Pharmacology Branch, DTP, NCI, 2025).

Several values for one entry are separate records, joined by “and”; a condition that tells them apart may be missing. Equal entries are not always repeated.

The subject of this experiment is 156681-154-R-J1-PDC complex spheroid viability. Nature of the experiment: Anticancer human tumor 156681-154-R-J1-PDC patient-derived melanoma cell line growth inhibition [CLK]. The settings on record: for viability, T/C: stronger effect = lower value. The method, boiled down: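 Multi-cell-type spheroids combined patient-derived tumor cells with HUVEC endothelial cells and human mesenchymal stem cells. Paired agents were dosed in half-log steps down from about clinical Cmax, or from 10 microM where Cmax was unknown.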

[1] abbreviates: curve of first compound, second compound 0.0316 µM.
[2] abbreviates: curve of first compound, second compound 0.1 µM.
The mark [3] stands for this setting: curve of first compound, second compound 0.316 µM.
The mark [4] stands for this setting: curve of first compound, second compound 1 µM.
Setting [5] is: curve of first compound, second compound 3.16 µM.
The mark [6] stands for this setting: curve of first compound, second compound 10 µM.
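Further: spheroids exposed to the agents for seven days.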
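Wherever viability, T/C is given: 100% = DMSO vehicle control viability.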

In general, IC50 refers to the concentration that inhibits the measured activity by half. The viability, T/C is the ratio of treated to control. In the case of `CC(C)CC(NC(=O)C(Cc1ccccc1)NC(=O)c1cnccn1)B(O)O` (stereo not given) + CNC(=O)c1ccc(Nc2nc(OC3CCCC3)c3c(-c4ccc5nc(C)oc5c4)c[nH]c3n2)c(OC)c1, the IC50 under setting [1] was less than 0.949 nM; the IC50 under setting [2] was less than 0.949 nM; the IC50 under setting [3] was less than 0.949 nM; the half-maximal inhibitory concentration (IC50) under setting [4] is less than 0.949 nM; the IC50 under setting [5] was less than 0.949 nM; the IC50 under setting [6] was less than 0.949 nM. For the same compound, the viability, T/C runs as follows: (second compound 0.0316 µM, first compound 0.000949 µM) 9.11%; (second compound 0.0316 µM, first compound 0.003 µM) 2.74%; (second compound 0.0316 µM, first compound 0.00949 µM) 0.21%; (second compound 0.0316 µM, first compound 0.03 µM) 0.23%; (second compound 0.0316 µM, first compound 0.0949 µM) 0.18%; (second compound 0.0316 µM, first compound 0.3 µM) 1.15%. Besides, the viability, T/C reads like this: (second compound 0.1 µM, first compound 0.000949 µM) 15.1%; (second compound 0.1 µM, first compound 0.003 µM) 0.3%; (second compound 0.1 µM, first compound 0.00949 µM) 0.24%; (second compound 0.1 µM, first compound 0.03 µM) 0.21%; (second compound 0.1 µM, first compound 0.0949 µM) 0.18%; (second compound 0.1 µM, first compound 0.3 µM) 1.03%. The viability, T/C is, setting by setting: (second compound 0.316 µM, first compound 0.000949 µM) 16.6%; (second compound 0.316 µM, first compound 0.003 µM) 0.88%; (second compound 0.316 µM, first compound 0.00949 µM) 0.24%; (second compound 0.316 µM, first compound 0.03 µM) 0.19%; (second compound 0.316 µM, first compound 0.0949 µM) 0.15%; (second compound 0.316 µM, first compound 0.3 µM) 0.15%. Moreover, the viability, T/C (second compound 1 µM, first compound 0.000949 µM) is 15.8%; the viability, T/C (second compound 1 µM, first compound 0.003 µM) is 0.29%; the viability, T/C (second compound 1 µM, first compound 0.00949 µM) is 1.19%; the viability, T/C (second compound 1 µM, first compound 0.03 µM) was 0.21%; the viability, T/C (second compound 1 µM, first compound 0.0949 µM) was 0.19%; the viability, T/C (second compound 1 µM, first compound 0.3 µM) is 1.63%. Further, the viability, T/C was 14.2% (second compound 3.16 µM, first compound 0.000949 µM); 1% (second compound 3.16 µM, first compound 0.003 µM); 1.37% (second compound 3.16 µM, first compound 0.00949 µM); 0.21% (second compound 3.16 µM, first compound 0.03 µM); 0.2% (second compound 3.16 µM, first compound 0.0949 µM); 0.39% (second compound 3.16 µM, first compound 0.3 µM). The viability, T/C is 14.7% (second compound 10 µM, first compound 0.000949 µM); 1.3% (second compound 10 µM, first compound 0.003 µM); 0.27% (second compound 10 µM, first compound 0.00949 µM); 0.31% (second compound 10 µM, first compound 0.03 µM); 0.26% (second compound 10 µM, first compound 0.0949 µM); 0.15% (second compound 10 µM, first compound 0.3 µM).
Take `Nc1ccn(C2OC(CO)C(O)C2(F)F)c(=O)n1` (stereo not given) + CN1CCN(c2cc(C(=O)Nc3cc4cc(-c5cnn(C)c5)ccc4cn3)ccn2)CC1: the IC50 reads like this: under setting [1], less than 31.6 nM; under setting [2], less than 31.6 nM; under setting [3], less than 31.6 nM; under setting [4], less than 31.6 nM; under setting [5], less than 31.6 nM; under setting [6], less than 31.6 nM. In addition, the viability, T/C (second compound 0.0316 µM, first compound 0.0316 µM) was 16.4%; the viability, T/C (second compound 0.0316 µM, first compound 0.1 µM) was 16.1%; the viability, T/C (second compound 0.0316 µM, first compound 0.316 µM) was 20.3%; the viability, T/C (second compound 0.0316 µM, first compound 1 µM) was 14.8%; the viability, T/C (second compound 0.0316 µM, first compound 3.16 µM) is 12%; the viability, T/C (second compound 0.0316 µM, first compound 10 µM) is 16.9%. The viability, T/C is 19% (second compound 0.1 µM, first compound 0.0316 µM); 13.4% (second compound 0.1 µM, first compound 0.1 µM); 12.9% (second compound 0.1 µM, first compound 0.316 µM); 12.8% (second compound 0.1 µM, first compound 1 µM); 10.9% (second compound 0.1 µM, first compound 3.16 µM); 12.8% (second compound 0.1 µM, first compound 10 µM). In addition, the viability, T/C (second compound 0.316 µM, first compound 0.0316 µM) was 13.8%; the viability, T/C (second compound 0.316 µM, first compound 0.1 µM) was 14%; the viability, T/C (second compound 0.316 µM, first compound 0.316 µM) is 10.1%; the viability, T/C (second compound 0.316 µM, first compound 1 µM) is 11.7%; the viability, T/C (second compound 0.316 µM, first compound 3.16 µM) was 16.5%; the viability, T/C (second compound 0.316 µM, first compound 10 µM) was 9.83%. Further, the viability, T/C runs as follows: (second compound 1 µM, first compound 0.0316 µM) 0.16%; (second compound 1 µM, first compound 0.1 µM) 0.82%; (second compound 1 µM, first compound 0.316 µM) 0.37%; (second compound 1 µM, first compound 1 µM) 1.65%; (second compound 1 µM, first compound 3.16 µM) 0.78%; (second compound 1 µM, first compound 10 µM) 1.59%. Moreover, the viability, T/C is 0.16% (second compound 3.16 µM, first compound 0.0316 µM); 1.54% (second compound 3.16 µM, first compound 0.1 µM); 0.42% (second compound 3.16 µM, first compound 0.316 µM); 0.1% (second compound 3.16 µM, first compound 1 µM); 4.55% (second compound 3.16 µM, first compound 3.16 µM); 0.67% (second compound 3.16 µM, first compound 10 µM). Moreover, the viability, T/C was 0.15% (second compound 10 µM, first compound 0.0316 µM); 2.7% (second compound 10 µM, first compound 0.1 µM); 0.29% (second compound 10 µM, first compound 0.316 µM); 4.06% (second compound 10 µM, first compound 1 µM); 1.19% (second compound 10 µM, first compound 3.16 µM); 2.59% (second compound 10 µM, first compound 10 µM).
As for `CC(Nc1ccc2c(c1)OCCn1cc(N3C(=O)OCC3C(F)F)nc1-2)C(N)=O` (stereo not given), the viability, T/C by setting is: (compound 0.0316 µM) 67.3% and 70.1%; (compound 0.1 µM) 65.7% and 55.4%; (compound 0.316 µM) 53.8% and 52.7%; (compound 1 µM) 39.9% and 37.6%; (compound 3.16 µM) 32.3% and 33.9%; (compound 10 µM) 23.5% and 19.5%. Further, for the setting “curve of compound”, the IC50 is 460 nM and 305 nM.
For the compound `C=CC(=O)Nc1cc(Nc2nccc(-c3cn(C)c4ccccc34)n2)c(OC)cc1N(C)CCN(C)C`, the viability, T/C is, setting by setting: (compound 0.000949 µM) 98.3% and 114%; (compound 0.003 µM) 88.5% and 85.6%; (compound 0.00949 µM) 96.7% and 88.3%; (compound 0.03 µM) 101% and 96.3%; (compound 0.0949 µM) 93.5% and 100%; (compound 0.3 µM) 80.8% and 90%. Besides, the IC50 (curve of compound) is greater than 300 nM.
Take `Nc1ccn(C2OC(CO)C(O)C2(F)F)c(=O)n1` (stereo not given): the viability, T/C reads like this: (compound 0.0316 µM) 14.4% and 13.7%; (compound 0.1 µM) 13.7% and 12.6%; (compound 0.316 µM) 15.7% and 16.1%; (compound 1 µM) 12.8% and 13.2%; (compound 3.16 µM) 16.9% and 14.6%; (compound 10 µM) 13.1% and 14.5%. For the setting “curve of compound”, the half-maximal inhibitory concentration (IC50) was less than 31.6 nM.
